From patent publication EP0528583A1, “Isolation and structure of the cell growth inhibitory cycloheptapeptide axinastatin 1” (ARIZONA BOARD OF REGENTS, priority 1991, dated 1993)
Residues, ends and D or L forms follow the SMILES beside them.

Key:
[1] = test system: NCI murine P388 lymphocytic leukemia cell line; experiment: P388 (PS system) lymphocytic leukemia cell growth inhibition in culture, NCI protocol; assay type: cell-based; settings: concentration required to inhibit growth of tumor cells in culture by 50 percent
From the text: (§1) The isolation and purification methods chosen can be monitored at each step by performing in-vitro and/or in-vivo antitumor tests as described by R. I. Geran, N.H. Greenberg, M. M. MacDonald, A.M. Schumacher and B. S. Abbot in Cancer Chemotherapy Rep., Part 3, Vol 3: 1-103 (1972); and by Schmidt, J. M.; Pettit, G. R. in Experientia 1978, 34: 659-660. Such tests include the determination of the concentration of active material required to inhibit the growth of tumor cells in culture, (e.g. the concentration required to inhibit growth by 50 percent or the E.D.₅₀) and of the dose of active material required to prolong the life of mice bearing transplanted tumors ("life extension").

[2] = test system: P388 lymphocytic leukemia; experiment: In vivo P388 (PS) lymphocytic leukemia life extension, NCI protocol; design: species or system mice; settings: in vivo P388 lymphocytic leukemia system; dose not given
From the text: as §1

CC(C)[C@@H]1NC(=O)[C@H](Cc2ccccc2)NC(=O)[C@@H]2CCCN2C(=O)[C@H](CC(N)=O)NC(=O)[C@H](C(C)C)NC(=O)[C@@H]2CCCN2C(=O)[C@H](C(C)C)NC1=O [axinastatin 1, cyclo (Asn-Pro-Phe-Val-Val-Pro-Val)] (cyclo(FVVPVNP))
PS ED₅₀ [1]: 0.21 µg/mL
life extension [2]: 20%
